Earlier results as cited in patent US20150111372A1 (priority 2013, published 2015).
Read-outs that look alike come from different tables or passages of the source.

Legend:
livers of chickens = conditions: in vivo

Compound | levels of arsenic in the livers of chickens (livers of chickens) | Solubility, Water (pH 2) | Solubility, Water (pH 5)
O=[N+]([O-])c1cc([As](=O)(O)O)ccc1O [Roxarsone, 4-Hydroxy-3-nitrobenzenearsonic acid] | elevated (but 'very low') levels | – | –
O=C(O)CNCP(=O)(O)O [N-(phosphonomethyl)glycine), N-(phosphonomethyl)glycine] | – | pH 2: 10 g/L | pH 5-9: 1 kg/L
